Active and inactive are the calls of the source. No cut-off for these calls is given here.
Columns and labels:
[1] = system: Pseudomonas aeruginosa; assay: Synergistic antibacterial activity against Pseudomonas aeruginosa PAO1 infected in Balb/c mouse wound infection model assessed as healing degree of wound at 50 uM,TOP QD for 3 days and measured after 9 days in presence of Tobramycin; type: functional, organism-based; conditions: time 3.0 day
[2] = Metal chelating activity assessed as Fe3+-compound complex formation assessed as pFe(III) value by fluorescence method
[3] = Toxicity in Balb/c mouse wound infection model infected with Pseudomonas aeruginosa PAO1 assessed as morphological changes in kidney at 50 uM,TOP for 3 days in Ciprofloxacin by H and E staining based analysis; type: tissue-based; conditions: in vivo, topical_or_ocular, 72 h, time 3 day
[4] = system: Pseudomonas aeruginosa; assay: Downregulation of rhlA expression in Pseudomonas aeruginosa PAO1 at 20 uM incubated for 24 hrs by RNA sequencing analysis; type: functional
[5] = Toxicity in Balb/c mouse wound infection model infected with Pseudomonas aeruginosa PAO1 assessed as morphological changes in spleen at 50 uM,TOP for 3 days in Ciprofloxacin by H and E staining based analysis; type: tissue-based; conditions: in vivo, topical_or_ocular, 72 h, time 3 day
[6] = system: Pseudomonas aeruginosa; assay: Downregulation of rhlB expression in Pseudomonas aeruginosa PAO1 at 20 uM incubated for 24 hrs by RNA sequencing analysis; type: functional
[7] = system: Pseudomonas aeruginosa; assay: Upregulation of pvdE expression in Pseudomonas aeruginosa PAO1 at 20 uM incubated for 24 hrs by RNA sequencing analysis; type: functional
[8] = Inhibition of quorum sensing system in Pseudomonas aeruginosa PAO1-lasB-gfp assessed as inhibition of GFP fluorescence expression at 1.25 to 20 uM and measured for 12 hrs at 15 mins interval by fluorescence assay; conditions: dose 1.25-20 µM
[9] = system: Pseudomonas aeruginosa; assay: Downregulation of pqsA expression in Pseudomonas aeruginosa PAO1 at 20 uM incubated for 24 hrs by RNA sequencing analysis; type: functional
[10] = Toxicity in Balb/c mouse wound infection model infected with Pseudomonas aeruginosa PAO1 assessed as morphological changes in heart at 50 uM,TOP for 3 days in Ciprofloxacin by H and E staining based analysis; type: tissue-based; conditions: in vivo, topical_or_ocular, 72 h, time 3 day
[11] = Toxicity in Balb/c mouse wound infection model infected with Pseudomonas aeruginosa PAO1 assessed as morphological changes in kidney at 50 uM,TOP for 3 days in Tobramycin by H and E staining based analysis; type: tissue-based; conditions: in vivo, topical_or_ocular, 72 h, time 3 day
[12] = system: Pseudomonas aeruginosa; assay: Downregulation of filA expression in Pseudomonas aeruginosa PAO1 at 20 uM incubated for 24 hrs by RNA sequencing analysis; type: functional
[13] = system: Pseudomonas aeruginosa; assay: Downregulation of pilT expression in Pseudomonas aeruginosa PAO1 at 20 uM incubated for 24 hrs by RNA sequencing analysis; type: functional
[14] = system: Pseudomonas aeruginosa; assay: Upregulation of fpvA expression in Pseudomonas aeruginosa PAO1 at 20 uM incubated for 24 hrs by RNA sequencing analysis; type: functional
[15] = Toxicity in Balb/c mouse wound infection model infected with Pseudomonas aeruginosa PAO1 assessed as body weight change at 50 uM,TOP for 3 days in Ciprofloxacin; conditions: in vivo, topical_or_ocular, 72 h, time 3 day
[16] = system: Pseudomonas aeruginosa; assay: Downregulation of pilI expression in Pseudomonas aeruginosa PAO1 at 20 uM incubated for 24 hrs by RNA sequencing analysis; type: functional
[17] = system: Pseudomonas aeruginosa; assay: Upregulation of pvdJ expression in Pseudomonas aeruginosa PAO1 at 20 uM incubated for 24 hrs by RNA sequencing analysis; type: functional
[18] = system: Pseudomonas aeruginosa; assay: Inhibition of iron homeostasis in Pseudomonas aeruginosa PAO1 in ABTGC medium assessed as increase in iron-free pyoverdine production at 1.25 to 20 uM in presence of FeCl3 by fluorescence based microplate reader analysis; type: functional, organism-based; conditions: dose 1.25-20 µM
[19] = Toxicity in Balb/c mouse wound infection model infected with Pseudomonas aeruginosa PAO1 assessed as morphological changes in lung at 50 uM,TOP for 3 days in Ciprofloxacin by H and E staining based analysis; type: tissue-based; conditions: in vivo, topical_or_ocular, 72 h, time 3 day
[20] = system: Pseudomonas aeruginosa; assay: Antibacterial activity against Pseudomonas aeruginosa PAO1 in ABTGC medium assessed as bacterial growth inhibition at 1.25 to 20 uM incubated for 16 hrs; type: functional, organism-based; conditions: dose 1.25-20 µM
[21] = Toxicity in Balb/c mouse wound infection model infected with Pseudomonas aeruginosa PAO1 assessed as morphological changes in liver at 50 uM,TOP for 3 days in Tobramycin by H and E staining based analysis; type: tissue-based; conditions: in vivo, topical_or_ocular, 72 h, time 3 day
[22] = system: Pseudomonas aeruginosa; assay: Synergistic antibacterial activity against Pseudomonas aeruginosa PAO1 infected in Balb/c mouse wound infection model assessed as reduction in bacterial survival rate at wounded area at 50 uM,TOP QD for 3 days in presence of Tobramycin by CFU assay; type: functional; conditions: time 3 day
[23] = molecular target: T1, HTH-type quorum-sensing regulator RhlR (Pseudomonas aeruginosa (strain ATCC 15692 / PAO1 / 1C / PRS 101 / LMG12228)) (UniProt P54292); assay: Inhibition of RhlR-mediated quorum sensing system in Pseudomonas aeruginosa PAO1 assessed as inhibition of pyocyanin production at 1.25 to 20 uM incubated for 24 hrs by absorbance based assay; conditions: dose 1.25-20 µM
T1 sequence (whole entry): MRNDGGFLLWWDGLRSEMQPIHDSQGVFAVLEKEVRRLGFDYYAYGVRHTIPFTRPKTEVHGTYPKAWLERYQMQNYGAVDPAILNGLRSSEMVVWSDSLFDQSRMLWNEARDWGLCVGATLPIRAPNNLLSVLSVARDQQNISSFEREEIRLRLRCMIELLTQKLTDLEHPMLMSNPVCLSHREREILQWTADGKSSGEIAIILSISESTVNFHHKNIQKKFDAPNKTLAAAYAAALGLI

[24] = Toxicity in Zebrafish embryo assessed as survival rate of zebrafish larvae at 10 to 200 uM and mesured upto 120 hrs post fertilization; design: species or system Danio rerio; conditions: in vivo, dose 10-200 µM
[25] = system: Pseudomonas aeruginosa; assay: Downregulation of mexA expression in Pseudomonas aeruginosa PAO1 at 20 uM incubated for 24 hrs by RNA sequencing analysis; type: functional
[26] = Toxicity in Balb/c mouse wound infection model infected with Pseudomonas aeruginosa PAO1 assessed as body weight change at 50 uM,TOP for 3 days in Tobramycin; conditions: in vivo, topical_or_ocular, 72 h, time 3 day
[27] = Toxicity in Balb/c mouse wound infection model infected with Pseudomonas aeruginosa PAO1 assessed as morphological changes in lung at 50 uM,TOP for 3 days in Tobramycin by H and E staining based analysis; type: tissue-based; conditions: in vivo, topical_or_ocular, 72 h, time 3 day
[28] = system: Pseudomonas aeruginosa; assay: Upregulation of pvdF expression in Pseudomonas aeruginosa PAO1 at 20 uM incubated for 24 hrs by RNA sequencing analysis; type: functional
[29] = system: Pseudomonas aeruginosa; assay: Downregulation of pilB expression in Pseudomonas aeruginosa PAO1 at 20 uM incubated for 24 hrs by RNA sequencing analysis; type: functional
[30] = system: Pseudomonas aeruginosa; assay: Downregulation of trpG expression in Pseudomonas aeruginosa PAO1 at 20 uM incubated for 24 hrs by RNA sequencing analysis; type: functional
[31] = system: Pseudomonas aeruginosa; assay: Antibiofilm activity against Pseudomonas aeruginosa PAO1 in ABTGC medium assessed as inhibition of biofilm formation incubated for 24 hrs by crystal violet staining based absorbance assay; type: functional, organism-based; conditions: PAO1, 24 h
[32] = Toxicity in Balb/c mouse wound infection model infected with Pseudomonas aeruginosa PAO1 assessed as morphological changes in heart at 50 uM,TOP for 3 days in Tobramycin by H and E staining based analysis; type: tissue-based; conditions: in vivo, topical_or_ocular, 72 h, time 3 day
[33] = system: Pseudomonas aeruginosa; assay: Inhibition of iron homeostasis in Pseudomonas aeruginosa PAO1 in ABTGC medium assessed as decrease in iron level at 1.25 to 20 uM in presence of FeCl3 by fluorescence based microplate reader analysis (Rvb= 9.6+/-2.00 microM); type: functional; conditions: dose 1.25-20 µM

SMILES: Cc1ccc2oc(=O)cc(OCCCCCCC(=O)NO)c2c1
- Activity [1]: Active
- pFe(III) [2]: 20.1
- Activity [3]: Non-Toxic
- Activity [4]: Active
- Activity [5]: Non-Toxic
- Activity [6]: Active
- Activity [7]: Active
- inhibition [8]: Dose-Dependent Effect
- Activity [9]: Active
- Activity [10]: Non-Toxic
- Activity [11]: Non-Toxic
- Activity [12]: Active
- Activity [13]: Active
- Activity [14]: Active
- Activity [15]: Non-Toxic
- Activity [16]: Active
- Activity [17]: Active
- inhibition [18]: Active
- Activity [19]: Non-Toxic
- Activity [20]: inactive
- Activity [21]: Non-Toxic
- Activity [22]: 1.78%
- inhibition [23]: inactive
- Activity [24]: Non-Toxic
- Activity [25]: Active
- Activity [26]: Non-Toxic
- Activity [27]: Non-Toxic
- Activity [28]: Active
- Activity [29]: Active
- Activity [30]: Active
- IC50 [31]: 3.66 µM
- Activity [32]: Non-Toxic
- Activity [33]: 6.96 µM

— ChEMBL document CHEMBL5370649, “Novel Coumarin Derivatives Inhibit the Quorum Sensing System and Iron Homeostasis as Antibacterial Synergists against Pseudomonas aeruginosa” (J Med Chem, 2023)
